From patent publication US8389484B2, “Methods for targeting RNA molecules” (priority 1999, dated 2013)
In the oligonucleotide strings, read from the 5' end, every base follows the letter of its sugar. An asterisk marks phosphorothioate; unmarked linkages are phosphodiester. Other units and linkages are bracketed, terminal groups are in braces. A string of capitals states the bases alone. d = 2'-deoxy (DNA)

Experiments:
[1] = system: 1674U-allele of endogenous RPA70 mRNA; assay: Oligonucleotide-directed cleavage of endogenous RPA70 mRNA in HeLa cell extracts (Northern blot); format: biochemical, human; conditions: for cleavage of matched allele versus singly mismatched allele: HeLa (1674U) versus Calu-1 (1674C) extracts
Protocol: (§1) FIG. 4. Northern blot analysis of oligonucleotide-directed cleavage of endogenous RPA70 mRNA in human cell extracts. The extracts were prepared from HeLa and Calu-1 cells that express only the 1674U- or the 1674 C-allele of the RPA70 mRNA, respectively. In addition to PS-oligos 1, 2, 3, and 6 as described in FIG. 3, oligo 7 (5′ […] 3′; SEQ ID NO:1) was used in the assay as a non-allele-specific control oligo that targets nucleotides 2230-2249 of the 3′-UTR of RPA70 mRNA. a, Targeting the 1674U/C polymorphic site by oligos 1 and 2. b, Targeting the site of different allelic structures around nucleotide 1656 by oligos 3 and 6. Reactions were done in duplicates. The averaged data points of the duplicates are plotted with standard deviations as error bars, and are shown below the corresponding Northern blots. Intact RPA70 mRNA levels were normalized to GAPDH levels and expressed as a percentage of no-oligo control for each experiment.
Oligonucleotide-directed Cleavage of Endogenous RPA70 mRNA in Human Cell Extracts. Human tumor cell lines HeLa and Calu-1 (American Type Culture collection) were genotyped for SNPs in RPA70 cDNA by RFLP analysis and by sequencing. […] HeLa cells were cultured in monolayers in minimum essential medium (Gibco BRL), and Calu-1 cells were cultured in monolayers in McCoy's 5A medium (Sigma). Both media were supplemented with 10% heat inactivated fetal bovine serum (JRH Biosciences), 100 units/mL penicillin-100 μg/mL streptomycin (Gibco BRL), and 2 mM L-glutamine (Gibco BRL). Both cell lines were grown under 5% CO2/95% air in a humidified incubator at 37° C. For preparation of cell extracts, the cells were grown to 80-90% confluence, typsinized, and washed twice with the complete medium as specified above and twice with phosphate buffered saline (Gibco BRL). Approximately 5×10^7 Cells were lysed in a 15 mL tissue grinder with a Teflon pestle (Wheaton) in the presence of 1.5 mL lysis buffer (20 mM Tris.HCl, pH 7.5, 420 mM NaCl, 2 mM MgCl2, 0.2 mM EDTA, 1 mM DTT, 0.5 mM phenylmethyl sulfonylfluoride (PMSF), and 25% glycerol). The sodium salt concentration was chosen to facilitate the disruption of the nuclear membrane to release RNase H from nuclei (21). Up to 200 strokes were needed to completely lyse the cells, as checked using a hemacytometer. The cell lysate was centrifuged at 14,000, rpm for 10 min at 4° C., and cell extracts were obtained by transferring supernatant to clean microcentrifuge tubes and freezing immediately at −80° C. Total protein concentration of cell extracts was determined using the Bradford assay (Bio-Rad). For oligodeoxynucleotide-directed cleavage of endogenous mRNA reactions, cell extracts were diluted to a total protein concentration of 3 mg/mL with the lysis buffer. After the addition of a 10× PS-oligo solution to the diluted cell extracts, the reaction mixture was incubated for 40 min at 37° C. The level of intact RPA70 mRNA was determined by total RNA isolation and Northern blot hybridization using procedures described previously (22, 23), and followed by phosphoimager analysis. Northern probes specific for RPA70 mRNA were synthesized by random primed [α-^32P]dCTP-labeling of a cDNA probe corresponding to nucleotides 1519-2080 of human RPA70 mRNA. To account for variability in the amount of total RNA loaded into individual gel wells for Northern analysis, the level of glyceraldehyde 3-phosphate dehydrogenase (GAPDH) mRNA was also measured by first stripping the RPA70 mRNA probe, and then reprobing the same Northern blot with a random primed [α-^32P]dCTP-labeled cDNA probe corresponding to a 600 nucleotide sequence of human GAPDH (Stratagene).
Allele-specific Cleavage of Endogenous RPA70 mRNA in Human Cell Extracts. We next performed oligo-directed cleavage of the full-length, endogenous RPA70 mRNA in whole cell extracts prepared from two genotyped human cell lines, HeLa (1674U) and Calu-1 (1674C). […]

[2] = system: 1674U- and 1674C-alleles of RPA70 mRNA; assay: Cell transfection assay (J. P. Basilion, unpublished results); format: cell-based, human; conditions: previously shown
[3] = system: U- and C-alleles of the 544-mer fragment of the RPA70-1674U/C mRNA; assay: E. coli RNase H digestion assay, oligo-directed cleavage in a purified system; format: biochemical, human; conditions: for cleavage efficiency, matched allele versus mismatched allele: 544-mer RPA70 mRNA fragments, oligos target the SNP at position 1674; for reduction in the cleavage of both alleles as compared to parent oligo 3: 544-mer U- and C-alleles, E. coli RNase H; for enhancement in allele discrimination versus parent oligo 3: hairpin oligos, under the experimental conditions
Source text: FIG. 3. E. coli RNase H digestion of both alleles of the 544-mer fragment of the RPA70-1674U/C mRNA. a, Nucleotide sequence of the PS-oligos used in the assay. Oligos 1 and 2 (SEQ ID NOs:6 and 7, respectively) target the polymorphic site; the bases opposing the polymorphism in the mRNA are shown in boldface. Oligos 3 and 6 (SEQ ID NOs:8 and 11, respectively) target the site of different allelic structures around nucleotide 1656. The terminal residues of oligos 1, 2, 3, and 6 (SEQ ID NOs:6, 7, 8, and 11, respectively) are labeled according to the positions of the complementary nucleotides in RPA70 mRNA. Oligos 4 and 5 (SEQ ID NOs:9 and 10, respectively) share the same target hybridization sequence as 3 (SEQ ID NO:8), but with additional nucleotides (shown underlined) added to facilitate folding into hairpin structures for intended enhancement in allele discrimination. b, E. coli RNase H digestion patterns of the 5′-^32P-labeled U- and C-alleles hybridized to the oligos in a. Cleavage sites were confirmed by running on the same gel RNase T1 digestion ladders for the two alleles (not shown): they are centered at position 1674 for oligos 1 and 2 (SEQ ID NOs:6 and 7), 1650 for oligos 3-5 (SEQ ID NOs:8-10), and 1654 for oligo 6 (SEQ ID NO:11). c, Comparison of percent cleavages of the U- and C-alleles calculated from b. Oligo-dependent-cleavage bands were integrated as a percentage of total RNA in each lane with the overlapping background-cleavage bands subtracted. Variations in sample loading to each lane were internally corrected by measuring percent cleavage instead of absolute band intensity.
E. coli RNase H Digestion Assay. Phosphorothioate oligodeoxyribonucleotides (PS-oligos) were employed in our studies because of their enhanced stability against nucleases (20). PS-oligos were chemically synthesized and desalted on C-18 cartridges by Synthetic Genetics. One, pmol of 5′-^32P-labeled mRNA was renatured in 12 μL RNase H buffer (20 mM Tris.HCl, pH 7.5, 10 mM KCl, 5 mM MgCl2, 0.1 mM dithiothreitol (DTT), 5% glycerol, and 10 μg phenol-extracted glycogen) by heating for 1 min at 85° C., then cooling for 5 min at room temperature followed by 10 min at 37° C. E. coli RNase H (0.6 units, Pharmacia) was then added to the renatured mRNA and incubated for 5 min at 37° C. PS-oligos (5 pmol in RNase H buffer) were subsequently added, and the reaction mixture (15 μL total) incubated for 20 min at 37° C. The digestion products were fractionated on a 4% denaturing polyacrylamide gel, and the cleavage patterns visualized by autoradiography. RNA levels were quantified using a phosphoimager (Fujifilm Model FLA-2000).
Allele-specific Cleavage of RPA70 mRNA in a Purified System. We first used an in vitro assay with E. coli RNase H and the in vitro transcribed 544-mer RPA70 mRNA fragments to examine the efficiency and allele specificity of structure-based targeting as compared to directly targeting the 1674U/C polymorphism. […] SNP-targeting oligos 1 and 2 were previously optimized for allele discrimination in a cell transfection assay (J. P. Basilion, unpublished results). Each of the SNP-targeting oligos is perfectly matched only with one of the two alleles; it is singly mismatched with the other allele. Single base mismatches formed between the SNP-targeting oligos and their respective non-targeting alleles contribute to the allele discrimination observed previously. Structure-targeting oligos 3 and 6 match perfectly with both alleles, and were designed to hybridize maximally with the single-stranded 1656 region of the U-allele, while avoiding the 1664 region which is slightly accessible in both alleles (FIG. 1b). Four and six additional nucleotides were added to the 5′-end of oligo 3 to produce oligos 4 and 5, respectively, to facilitate folding into hairpin structures for enhanced allele discrimination (27).

[4] = system: 1674C-allele of endogenous RPA70 mRNA; assay: Oligonucleotide-directed cleavage of endogenous RPA70 mRNA in Calu-1 cell extracts (Northern blot); format: biochemical, human; conditions: 300 nM oligo, Calu-1 (1674C) extracts
Protocol: as §1
Oligonucleotide-directed Cleavage of Endogenous RPA70 mRNA in Human Cell Extracts. […] Total protein concentration of cell extracts was determined using the Bradford assay (Bio-Rad). […] The level of intact RPA70 mRNA was determined by total RNA isolation and Northern blot hybridization using procedures described previously (22, 23), and followed by phosphoimager analysis. […]

5′ TGGTCTGCAGTTAGGGTCAG 3′ (phosphorothioate backbone, further chemistry not given here) [Oligo 7]
response of the two cell types to the control oligo ([1]; HeLa versus Calu-1 extracts, 100 to 600 nM): responded similarly
targeting efficiency on the 1674U- and 1674C-alleles [2]: equally high efficiency

Oligo 1: Phosphorothioate oligodeoxyribonucleotide 20-mer (SEQ ID NO:6) targeting the RPA70 1674U/C polymorphic site, U-allele specific (dT*dA*dG*dC*dT*dT*dC*dA*dG*dC*dA*dG*dA*dC*dT*dC*dC*dT*dG*dG)
cleavage efficiency, matched allele versus mismatched allele [3]: greater for their respective matched alleles than for the mismatched alleles
extent of cleavage of the matched allele (U-allele) ([1]; 300 nM oligo, HeLa (1674U) extracts): the majority of the matched allele remained uncleaved
cleavage of matched allele versus singly mismatched allele ([1]; 300 nM oligo): equally or slightly more cleaved than the singly mismatched allele

Oligo 2: Phosphorothioate oligodeoxyribonucleotide 18-mer (SEQ ID NO:7) targeting the RPA70 1674U/C polymorphic site, C-allele specific (dG*dC*dT*dT*dC*dA*dG*dC*dG*dG*dA*dC*dT*dC*dC*dT*dG*dG)
cleavage efficiency, matched allele versus mismatched allele [3]: greater for their respective matched alleles than for the mismatched alleles
cleavage of matched allele versus singly mismatched allele ([1]; 300 nM oligo): equally or slightly more cleaved than the singly mismatched allele
extent of cleavage of the matched allele (C-allele) [4]: the majority of the matched allele remained uncleaved

Oligo 3: Phosphorothioate oligodeoxyribonucleotide 20-mer (SEQ ID NO:8) targeting the site of different allelic structures around nucleotide 1656 of RPA70 mRNA (dC*dA*dA*dG*dT*dC*dA*dC*dC*dC*dA*dC*dT*dG*dA*dT*dT*dC*dT*dC)
U-allele remaining uncleaved ([1]; 300 nM oligo, HeLa (1674U) extracts, intact mRNA normalized to GAPDH, % of no-oligo control): 15%
allele discrimination relative to that obtained by directly targeting the polymorphism with 20-mer 1 ([1]; HeLa versus Calu-1 extracts, percentage of intact mRNA evaluated, 100, 300 and 600 nM): two- to sixfold
non-target C-allele intact ([4]; intact mRNA normalized to GAPDH, % of no-oligo control): more than 90%

Oligo 4: PS-oligo (SEQ ID NO:9), oligo 3 with four additional 5′-end nucleotides to facilitate folding into a hairpin structure (GAATCAAGTCACCCACTGATTCTC; all phosphorothioate, sugars by position and methylation of C not given here)
reduction in the cleavage of both alleles as compared to parent oligo 3 [3]: 23%
enhancement in allele discrimination versus parent oligo 3 [3]: no enhancement in allele discrimination

Oligo 5: PS-oligo (SEQ ID NO:10), oligo 3 with six additional 5′-end nucleotides to facilitate folding into a hairpin structure (GAGAATCAAGTCACCCACTGATTCTC; all phosphorothioate, sugars by position and methylation of C not given here)
reduction in the cleavage of both alleles as compared to parent oligo 3 [3]: 36%
enhancement in allele discrimination versus parent oligo 3 [3]: no enhancement in allele discrimination

Oligo 6: Phosphorothioate oligodeoxyribonucleotide 15-mer (SEQ ID NO:11) targeting the site of different allelic structures around nucleotide 1656 of RPA70 mRNA (dC*dA*dA*dG*dT*dC*dA*dC*dC*dC*dA*dC*dT*dG*dA)
allele discrimination compared with the other oligos ([1]; HeLa versus Calu-1 extracts, all three oligo concentrations (100, 300, 600 nM)): better allele discrimination than the SNP-targeting oligos 1 and 2
